Reference: patent US5576324A, “Quinoline derivatives or salt thereof and remedy for cardiac diseases containing the same” (Kowa Co., Ltd., priority 1992, dated 1996)
Structures can show the parent of a compound that is named as a salt.

Key:
[1] = system: Guinea Pig Atrium (left atrium contraction); assay: Inotropic action on guinea pig atrium samples; conditions: Cavia porcellus, 10^-7 M, 1 Hz, 32° C., read-out: Increment of Contraction of the left atrium
Description: Inotropic Action and Action Against Time-dependent Action on Guinea Pig Atrium Samples
Guinea pigs were smashed at the head, and were exsanguinated through a cut in the carotid artery. Their hearts were taken out. From each heart, the right and left atria were obtained. The atria were suspended in Krebs-Henzereit solution at 32° C. through which a gas containing 95% oxygen and 5% carbon dioxide was passed. The tensile strength was measured with a strain gauge, and was amplified and recorded. Beats of right atria were counted using a tachometer, and the counts were regarded as the cardiac rate. Electric pulses (1 Hz, 5 msec) having twice the magnitude of the threshold were applied onto the left atria. The samples were given to […] in an accumulative manner at intervals of 5 minutes.
The results are expressed by the increment of contraction of the left atrium when 10^-7 M of a sample was administered.

[2] = system: Mouse Arrhythmia Induced by Chloroform (ventricular fibrillation); assay: Action on Mouse Arrhythmia Induced by Chloroform; format: in vivo; conditions: 100 mg/kg given to mice, 20 min before chloroform
Description: Action on Mouse Arrhythmia Induced by Chloroform
Test compounds (100 mg/kg) were given to mice, and 20 minutes thereafter, the mice were confined in a pot filled with chloroform. Upon respiratory stoppage, the mice were immediately taken out of the pot, and electrocardiodiagram (lead II) was recorded to obtain ventricular tachycardia, ventricular fibrillation, and period until the cardiac arrest.

[3] = system: Blood Flow of a Hind Leg of Anesthetic Dog; assay: Action on the Blood Flow of a Hind Leg of Anesthetic Dog; format: in vivo; conditions: Canis lupus familiaris; 100 μg into femoral artery, anesthetized dog; read-out: Increment of Blood Flow
Description: Action on the Blood Flow of a Hind Leg of Anesthetic Dog
Adult crossbred dogs were put under anesthesia with pentobarbital-Na (30 mg/kg) by intravenous injection, Heparin was administered to each dog, and an extracorporeal circulation circuit was established in the femoral artery, The blood flow in the hind leg was measured with an electromagnetic hemodromometer placed on the circuit, The samples were administered at a dose of 100 μg into the feromal artery through a rubber tube provided on the circuit.

`Cc1cc2c(c3ccc(=O)[nH]c13)OC(CN)C2C` (stereo not drawn) [Example 13, (2RS, 3SR)-2-Aminomethyl-3,5-dimethyl-2,3,6,7-tetrahydrofuro[2,3-f]quinoline-7-one.HCl] showed an activation at 0.1 µM [1] of 31.8%.
`Cc1cc2c(c3ccc(=O)[nH]c13)OC(C)(CN)C2` (stereo not drawn) [Example 20] was tested, and the “% Inhibition of ventricular fibrillation” value [2] was 100%.
`Cc1cc2c(c3c1NC(=O)CC3)OC(C)(CN)C2` (stereo not drawn) [Example 21] showed a change in vivo at 0.1 mg [3] of 35.7%.
For `Cc1cc2c(c3ccc(=O)[nH]c13)OC(C)(CN)C2(C)C` (stereo not drawn) [Example 22], the “% Inhibition of ventricular fibrillation” value [2] was 90%.
`NCC1Cc2c(ccc3[nH]c(=O)ccc23)O1` (stereo not drawn) [Example 50, 2-Aminomethyl-1,2,6,7-tetrahydrofuro[3,2-f]quinoline-7-one] gave an activation at 0.1 µM [1] of 11.1% and a change in vivo at 0.1 mg [3] of 26.7%.
For `CCN(CC)CC1Cc2cc(C)c3c(c2O1)CCC(=O)N3` (stereo not drawn) [Example 77], the “% Inhibition of ventricular fibrillation” value [2] was 100%.
`Cc1cc2c(c3ccc(=O)[nH]c13)OC(CN1CCCCC1)C2` (stereo not drawn) [Example 82] gave a change in vivo at 0.1 mg [3] of 31%.
In the case of `CCCCNCC1Cc2cc(C)c3[nH]c(=O)ccc3c2O1` (stereo not drawn) [Example 94, 2-(n-butylamino)methyl-5-methyl-2,3,6,7-tetrahydrofuro[2,3-f]quinoline-7-one.HCl], the “% Inhibition of ventricular fibrillation” value [2] is reported as 100%.
`COc1ccc(CCNCC2Cc3cc(C)c4[nH]c(=O)ccc4c3O2)cc1OC` (stereo not drawn) [Example 99] was tested, and the change in vivo at 0.1 mg [3] was 97%.
`CC(=O)OCC1Cc2cc(C)c3[nH]c(=O)ccc3c2O1` (stereo not drawn) [Example 103, 2-Acetoxymethyl-5-methyl-2,3,6,7-tetrahydrofuro-[2,3-f]quinoline-7-one] showed an activation at 0.1 µM [1] of 13.1% and a change in vivo at 0.1 mg [3] of 66.7%.
With `Cc1cc2c(c3ccc(=O)[nH]c13)OC(CI)C2` (stereo not drawn) [Example 106, 2-Iodomethyl-5-methyl-2,3,6,7-tetrahydrofuro-[2,3-f]quinoline-7-one] the activation at 0.1 µM [1] was 46.8% and the change in vivo at 0.1 mg [3] was 39.5%.
With `Cc1cc2c(c3ccc(=O)[nH]c13)OC(CF)C2` (stereo not drawn) [Example 107, 2-Fluoromethyl-5-methyl-2,3,6,7-tetrahydrofuro-[2,3-f]quinoline-7-one] the change in vivo at 0.1 mg [3] was 54.1%.
`Cc1cc2c(c3c1NC(=O)CC3)OC(CF)C2` (stereo not drawn) [Example 108] was tested, and the change in vivo at 0.1 mg [3] was 54.8%.
For `COCC1Cc2cc(C)c3[nH]c(=O)ccc3c2O1` (stereo not drawn) [Example 109], the activation at 0.1 µM [1] was 20.3%.
`Cc1cc2c(c3c1NC(=O)CC3)OC(CNS(C)(=O)=O)C2` (stereo not drawn) [Example 114] was tested, and the activation at 0.1 µM [1] was 18.8%.
In the case of `NCC1Cc2cc(Cl)c3[nH]c(=O)ccc3c2O1` (stereo not drawn) [Example 120, 2-Aminomethyl-5-chloro-2,3,6,7-tetrahydrofuro[2,3-f]quinoline-7-one.HCl], the “% Inhibition of ventricular fibrillation” value [2] is reported as 90% and the change in vivo at 0.1 mg [3] is reported as 110%.
`NCC1Cc2cc(Cl)c3c(c2O1)CCC(=O)N3` (stereo not drawn) [Example 121] was tested, and the “% Inhibition of ventricular fibrillation” value [2] was 100%.
